Reference: EPA's ToxValDB 9.5 (doi:10.2903/j.efsa.2010.1598)
Converted amounts (≈) assume the structure as drawn.

Experiments:
[1] = system: Canidae; details: acute; oral; Dog Other; mortality
[2] = system: Rattus norvegicus
[3] = system: Bibionidae; details: chronic/long-term; duration: 28 days
[4] = system: Ictalurus punctatus; details: acute; duration: 96 hours; mortality
[5] = system: Oncorhynchus mykiss; details: chronic/long-term; duration: 21 days; growth
[6] = system: Anas platyrhynchos
[7] = system: Oryctolagus sp.; details: developmental; development
[8] = system: Tagia sp.
[9] = system: Daphnia magna; details: chronic/long-term; duration: 21 days; reproduction
[10] = system: Colinus virginianus; details: acute; oral; mortality
[11] = system: Apis mellifera; details: acute; dermal; mortality

With COC(=O)Nc1nc2ccccc2[nH]1 [Carbendazim] the LD50 [1] was greater than 5000 mg/kg-day, the NOEL ([2]; chronic, organ weight) was 22.5 mg/kg-day and the NOAEL ([2]; developmental, development) was 10 mg/kg-day. The NOEC [3] was 0.0133 mg/L, the LC50 [4] was 0.019 µg/mL (≈ 0.0994 µM) and the NOEC [5] was 0.0032 mg/L. For the same compound, the NOEL ([6]; reproductive) was 24.6 mg/kg-day, the LD50 ([6]; short-term, oral, feed, mortality) was 615 mg/kg-day and the NOAEL [7] was 10 mg/kg-day. It also gave an LC50 ([8]; acute, duration: 14 days, mortality) of 5.4 mg/kg, an NOEC ([8]; chronic/long-term, duration: 56 days) of 1 mg/kg and an NOEC [9] of 0.0015 mg/L. It also gave an LD50 [10] greater than 2250 mg/kg-day and an LD50 [11] greater than 50 µg/piece.
